The test system of assay [1] is Mus musculus. The experiment in a line: Compound was evaluated for (T-C) survival time of the treated mice (Mus musculus) against Plasmodium berghei at 160 mg/kg. It counts as functional.
Assay [2] deals with Mus musculus. Kind of assay: Compound was evaluated for (T-C) survival time of the treated mice (Mus musculus) against Plasmodium berghei at 40 mg/Kg. It counts as functional.
Assay [3] deals with Mus musculus. Kind of assay: Compound was evaluated for (T-C) survival time of the treated mice (Mus musculus) against Plasmodium berghei at 640 mg/kg. It counts as functional.
Assay [4] relates to Plasmodium falciparum. Kind of assay: In vitro antimalarial activity against Plasmodium falciparum D6. It counts as functional, organism-based.
Assay [5] relates to Plasmodium falciparum. Kind of assay: In vitro antimalarial activity against Plasmodium falciparum W-2. It counts as functional, organism-based.

The pIC50 is the negative decadic logarithm of the IC50, by convention in mol/L. Low readings indicate a high IC50, high ones a low IC50.

pIC50: −log10 of the molar value.

Regarding `CC(C)(C)OOCN1CCN(c2ccccc2)CC1`, the T-C in the assay with Mus musculus [1] came out at 0.7 days; in the assay on Mus musculus [2] it was 0.9 days; in the assay with Mus musculus [3], 0.7 days. The figures for the pIC50 in the assay on Plasmodium falciparum [4] and with Plasmodium falciparum [5] were 4.59 and 4.40, respectively.

Consider `CC1CCN(COOC(C)(C)C)CC1`, for which the T-C came out at 0.1 days with Mus musculus [1], 0.3 days with Mus musculus [2] and 0.7 days in the assay with Mus musculus [3]. The values for the negative logarithm of the IC50 (pIC50) with Plasmodium falciparum [4] and with Plasmodium falciparum [5] were 4.71 and 4.60, respectively.

For the compound `CC(C)(C)OOCN1CCC(c2ccccc2)CC1`, the figures for the T-C in the assay on Mus musculus [1], in the assay with Mus musculus [2] and in the assay on Mus musculus [3] were 0.5 days, 0.3 days and 0.8 days, respectively. The pIC50 is 4.56 in the assay with Plasmodium falciparum [4] and 4.57 in the assay with Plasmodium falciparum [5].

On to `CN(COOC(C)(C)C)C1CCCCC1`, for which the T-C is 1.3 days in the assay on Mus musculus [1], 0.5 days in the assay with Mus musculus [2] and 0.7 days in the assay on Mus musculus [3]. Besides, the negative logarithm of the IC50 (pIC50) is 4.60 in the assay on Plasmodium falciparum [4] and 4.58 with Plasmodium falciparum [5].

Regarding `CCN(COOC(C)(C)C)c1ccccc1`, the T-C in the assay on Mus musculus [1] was 0.3 days; in the assay with Mus musculus [2], 0.5 days; in the assay with Mus musculus [3] it was 1.3 days. In addition, the negative logarithm of the IC50 (pIC50) was 4.27 with Plasmodium falciparum [4] and 4.40 in the assay with Plasmodium falciparum [5].

In the case of `CC(C)(C)OO` [TERT-BUTYL HYDROPEROXIDE], the T-C in the assay on Mus musculus [1] came to 0.3 days; in the assay on Mus musculus [2], 0.1 days; in the assay on Mus musculus [3], 0.7 days. For the same compound, the pIC50 in the assay on Plasmodium falciparum [4] is 3.69; in the assay with Plasmodium falciparum [5], 3.62.

The record behind these values is ChEMBL document CHEMBL1124338, “Amine peroxides as potential antimalarials” (J Med Chem, 1989).
